# Measurements reported in US12611446B2, “Cannabinoid product for improving musculoskeletal health” (Lonza Greenwood LLC, priority 2019, dated 2026).
# Marks after values point to notes of the source that are not given here.
# Legend:
# [1] = tested on: Sodium Monoiodoacetate Induced Osteoarthritis(OA) in Rats; experiment: Effect of UC-II undenatured Type II collagen and cannabidiol on sodium monoiodoacetate (MIA) induced osteoarthritis in rats: metabolic, inflammatory and oxidative stress markers; assay type: in vivo; settings: MIA-induced OA male Wistar rats, 30 days; for COMP (cartilage oligomeric matrix protein) / CRP (c-reactive protein) / IL-1β (interleukin-1β) / IL-6 (interleukin-6) / PGE2 (prostaglandin E2) / TNF-α (tumor necrosis factor α): serum
# Experimental: OA was induced in male Wistar rats by intra-articular injection of sodium monoiodoacetate (MIA: 1 mg/kg). Treatment was started a week before injection with MIA and lasted 30 days. Biomarker testing was conducted prior to 24 days post MIA.
# [2] = tested on: Sodium Monoiodoacetate Induced Osteoarthritis(OA) in Rats; experiment: Effect of UC-II undenatured Type II collagen and cannabigerol on sodium monoiodoacetate (MIA) induced osteoarthritis in rats: metabolic, inflammatory and oxidative stress markers; assay type: in vivo; settings: MIA-induced OA female rats, 30 days
# Experimental: […] Treatment was started a week before injection with MIA and lasted 30 days. Biomarker testing was conducted prior to 24 days post MIA.
# The dosage levels were the same.
# [3] = CBD1 = CBD 1.62 mg/kg (combination: + UC-II 4 mg/kg)
# [4] = CBD2 = CBD 3.24 mg/kg (combination: + UC-II 4 mg/kg)
# [5] = CBGI = CBG 1.62 mg/kg (combination: + UC-II 4 mg/kg)
# [6] = CBGII = CBG 3.24 mg/kg (combination: + UC-II 4 mg/kg)
smiles,measurement,setting,value
"C=C(C)[C@@H]1CCC(C)=C[C@H]1c1c(O)cc(CCCCC)cc1O [CBD, cannabidiol]",ALB (Albumin),[1]; [3],3.59 ± 0.13^ab g/dL
same,ALP (Alkaline phosphatase),[1]; [3],137.14 ± 8.95^a U/L
same,ALT (Alanine aminotransferase),[1]; [3],69.14 ± 7.63 U/L
same,AST (Aspartate aminotransferase),[1]; [3],108.43 ± 13.4 U/L
same,BUN (Blood Urine Nitrogen),[1]; [3],23.57 ± 2.27 mg/dL
same,CAT (catalase),[1]; [3],125.79 ± 7.41^d U/mL
same,CR (Creatine),[1]; [3],0.45 ± 0.11 mg/dL
same,GLOB (Globulin),[1]; [3],3.16 ± 0.05^b g/dL
same,GLU (Glucose),[1]; [3],112.43 ± 11.52 mg/dL
same,MDA (malondialdehyde),[1]; [3],1.28 ± 0.08^b nmol/mL
same,OCN (osteocalcin),[1]; [3],28.20 ± 1.74^e μg/mL
same,SOD (superoxide dismutase),[1]; [3],50.00 ± 1.82^de U/mL
same,TBIL (Total Bilirubin),[1]; [3],0.20 ± 0.01 mg/dL
same,TP (Total Protein),[1]; [3],6.71 ± 0.17 g/dL
same,ALB (Albumin),[1]; [4],3.57 ± 0.14^ab g/dL
same,ALP (Alkaline phosphatase),[1]; [4],140.43 ± 8.40^a U/L
same,ALT (Alanine aminotransferase),[1]; [4],70.29 ± 5.56 U/L
same,AST (Aspartate aminotransferase),[1]; [4],110.29 ± 12.58 U/L
same,BUN (Blood Urine Nitrogen),[1]; [4],24.23 ± 1.27 mg/dL
same,CAT (catalase),[1]; [4],139.36 ± 3.44b^c U/mL
same,CR (Creatine),[1]; [4],0.45 ± 0.08 mg/dL
same,GLOB (Globulin),[1]; [4],3.27 ± 0.23^ab g/dL
same,GLU (Glucose),[1]; [4],109.86 ± 5.81 mg/dL
same,GSH-Px (glutathione peroxidase),[1]; [4],85.31 ± 3.85^bc U/mL
same,MDA (malondialdehyde),[1]; [4],1.24 ± 0.16^b nmol/mL
same,OCN (osteocalcin),[1]; [4],33.35 ± 3.18^d μg/mL
same,SOD (superoxide dismutase),[1]; [4],58.04 ± 2.76^c U/mL
same,TBIL (Total Bilirubin),[1]; [4],0.20 ± 0.01 mg/dL
same,TP (Total Protein),[1]; [4],6.87 ± 0.37 g/dL
same,COMP (cartilage oligomeric matrix protein),[1]; [3],21.22 ± 1.77^c ng/mL
same,CRP (c-reactive protein),[1]; [3],6.39 ± 1.06^c mg/L
same,IL-1β (interleukin-1β),[1]; [3],34.92 ± 2.23^bc pg/mL
same,IL-6 (interleukin-6),[1]; [3],30.83 ± 2.17^c pg/mL
same,PGE2 (prostaglandin E2),[1]; [3],504.41 ± 37.35^bc pg/mL
same,TNF-α (tumor necrosis factor α),[1]; [3],46.58 ± 0.87^c pg/mL
same,COMP (cartilage oligomeric matrix protein),[1]; [4],16.32 ± 1.91^d ng/mL
same,CRP (c-reactive protein),[1]; [4],3.95 ± 0.20^d mg/L
same,IL-1β (interleukin-1β),[1]; [4],31.94 ± 1.91^cd pg/mL
same,IL-6 (interleukin-6),[1]; [4],28.65 ± 2.17^c pg/mL
same,PGE2 (prostaglandin E2),[1]; [4],469.24 ± 11.42^cd pg/mL
same,TNF-α (tumor necrosis factor α),[1]; [4],41.97 ± 1.31^c pg/mL
"CCCCCc1cc(O)c(C/C=C(\C)CCC=C(C)C)c(O)c1 [CBG, cannabigerol]",CAT (catalase),[2]; [5],136.44 ± 4.10^bc U/mL
same,COMP (cartilage oligometrix matrix protein),[2]; [5],21.68 ± 2.13^b ng/mL
same,CRP (c-reactive protein),[2]; [5],7.04 ± 0.85^b mg/L
same,GSH-Px (glutathione peroxidase),[2]; [5],75.87 ± 4.87^bc U/mL
same,IL-1β (interleukin-1β),[2]; [5],35.08 ± 3.41^b pg/mL
same,IL-6 (interleukin-6),[2]; [5],33.14 ± 4.07^b pg/mL
same,IL-10 (interleukin-10),[2]; [5],47.42 ± 5.77^d pg/mL
same,MDA (malondialdehyde),[2]; [5],1.57 ± 0.07^b nmol/mL
same,Osteocalcin,[2]; [5],28.15 ± 1.34^ef μg/mL
same,PGE2 (prostaglandin E2),[2]; [5],483 ± 36.86^b pg/mL
same,SOD (superoxide dismutase),[2]; [5],49.13 ± 5.76^bc U/mL
same,TNF-α (tumor necrosis factor α),[2]; [5],56.95 ± 5.61^b pg/mL
same,CAT (catalase),[2]; [6],138.82 ± 2.71^b U/mL
same,COMP (cartilage oligometrix matrix protein),[2]; [6],20.42 ± 2.16^b ng/mL
same,CRP (c-reactive protein),[2]; [6],6.45 ± 0.82^bc mg/L
same,GSH-Px (glutathione peroxidase),[2]; [6],77.29 ± 5.83^b U/mL
same,IL-1β (interleukin-1β),[2]; [6],34.05 ± 2.80^b pg/mL
same,IL-6 (interleukin-6),[2]; [6],32.41 ± 3.81^b pg/mL
same,IL-10 (interleukin-10),[2]; [6],46.17 ± 4.91^d pg/mL
same,MDA (malondialdehyde),[2]; [6],1.60 ± 0.07^b nmol/mL
same,Osteocalcin,[2]; [6],30.82 ± 1.35^de μg/mL
same,PGE2 (prostaglandin E2),[2]; [6],473.71 ± 40.89^b pg/mL
same,SOD (superoxide dismutase),[2]; [6],51.13 ± 3.75^bc U/mL
same,TNF-α (tumor necrosis factor α),[2]; [6],54.32 ± 5.01^b pg/mL
